Assays:
Assay type in all cases: in vivo
[1] = test system: Puccinia recondita f sp. tritici; assay: Test B: wheat leaf rust, preventive spray on wheat seedlings; details: 200 ppm; wheat seedlings sprayed to run-off, inoculated next day, rated after 24 h + 7 days
Text: General protocol for preparing test suspensions for Tests A-G: the test compounds were first dissolved in acetone in an amount equal to 11% of the final volume and then suspended at the desired concentration (in ppm) in acetone and purified water (50/50 mix by volume) containing 250 ppm of the surfactant Trem® 014 (polyhydric alcohol esters). The resulting test suspensions were then used in Tests A-G. Spraying a 200 ppm test suspension to the point of run-off on the test plants was the equivalent of a rate of 800 g/ha. The test suspension was sprayed to the point of run-off on wheat seedlings. The following day the seedlings were inoculated with a spore suspension of Puccinia recondita f sp. tritici (the causal agent of wheat leaf rust) and incubated in a saturated atmosphere at 20° C. for 24 h, and then moved to a growth chamber at 20° C. for 7 days, after which time disease ratings were visually made. Results for Tests A-G are given in Table A. In the Table, a rating of 100 indicates 100% disease control and a rating of 0 indicates no disease control (relative to the controls). A dash (-) indicates no test results. All results are for 200 ppm except where followed by an “*”, which indicates 40 ppm.

Botrytis cinerea = assay: Test F: tomato botrytis, preventive spray on tomato seedlings; details: 200 ppm; tomato seedlings sprayed to run-off, inoculated next day, rated after 48 h + 3 days
Text: General protocol for preparing test suspensions for Tests A-G: the test compounds were first dissolved in acetone in an amount equal to 11% of the final volume and then suspended at the desired concentration (in ppm) in acetone and purified water (50/50 mix by volume) containing 250 ppm of the surfactant Trem® 014 (polyhydric alcohol esters). The resulting test suspensions were then used in Tests A-G. Spraying a 200 ppm test suspension to the point of run-off on the test plants was the equivalent of a rate of 800 g/ha. The test suspension was sprayed to the point of run-off on tomato seedlings. The following day the seedlings were inoculated with a spore suspension of Botrytis cinerea (the causal agent of tomato botrytis) and incubated in saturated atmosphere at 20° C. for 48 h, and then moved to a growth chamber at 27° C. for 3 additional days, after which time disease ratings were visually made. Results for Tests A-G are given in Table A. In the Table, a rating of 100 indicates 100% disease control and a rating of 0 indicates no disease control (relative to the controls). A dash (-) indicates no test results. All results are for 200 ppm except where followed by an “*”, which indicates 40 ppm.

[2] = test system: Erysiphe graminis f. sp. tritici; assay: Test A: wheat powdery mildew, preventive spray on wheat seedlings; details: 200 ppm; wheat seedlings sprayed to run-off, inoculated next day, rated after 8 days; 100 = 100% disease control, 0 = no control
Text: General protocol for preparing test suspensions for Tests A-G: the test compounds were first dissolved in acetone in an amount equal to 11% of the final volume and then suspended at the desired concentration (in ppm) in acetone and purified water (50/50 mix by volume) containing 250 ppm of the surfactant Trem® 014 (polyhydric alcohol esters). The resulting test suspensions were then used in Tests A-G. Spraying a 200 ppm test suspension to the point of run-off on the test plants was the equivalent of a rate of 800 g/ha. The test suspension was sprayed to the point of run-off on wheat seedlings. The following day the seedlings were inoculated with a spore dust of Erysiphe graminis f. sp. tritici, (the causal agent of wheat powdery mildew) and incubated in a growth chamber at 20° C. for 8 days, after which time disease ratings were visually made. Results for Tests A-G are given in Table A. In the Table, a rating of 100 indicates 100% disease control and a rating of 0 indicates no disease control (relative to the controls). A dash (-) indicates no test results. All results are for 200 ppm except where followed by an “*”, which indicates 40 ppm.

Septoria nodorum = assay: Test D: wheat glume blotch, preventive spray on wheat seedlings; details: 200 ppm; wheat seedlings sprayed to run-off, inoculated next day, rated after 48 h + 7 days
Text: General protocol for preparing test suspensions for Tests A-G: the test compounds were first dissolved in acetone in an amount equal to 11% of the final volume and then suspended at the desired concentration (in ppm) in acetone and purified water (50/50 mix by volume) containing 250 ppm of the surfactant Trem® 014 (polyhydric alcohol esters). The resulting test suspensions were then used in Tests A-G. Spraying a 200 ppm test suspension to the point of run-off on the test plants was the equivalent of a rate of 800 g/ha. The test suspension was sprayed to the point of run-off on wheat seedlings. The following day the seedlings were inoculated with a spore suspension of Septoria nodorum (the causal agent of wheat glume blotch) and incubated in a saturated atmosphere at 20° C. for 48 h, and then moved to a growth chamber at 20° C. for 7 days, after which time disease ratings were visually made. Results for Tests A-G are given in Table A. In the Table, a rating of 100 indicates 100% disease control and a rating of 0 indicates no disease control (relative to the controls). A dash (-) indicates no test results. All results are for 200 ppm except where followed by an “*”, which indicates 40 ppm.

Septoria tritici = assay: Test E: wheat leaf blotch, preventive spray on wheat seedlings; details: 200 ppm; wheat seedlings sprayed to run-off, inoculated next day, rated after 48 h + 19 days
Text: General protocol for preparing test suspensions for Tests A-G: the test compounds were first dissolved in acetone in an amount equal to 11% of the final volume and then suspended at the desired concentration (in ppm) in acetone and purified water (50/50 mix by volume) containing 250 ppm of the surfactant Trem® 014 (polyhydric alcohol esters). The resulting test suspensions were then used in Tests A-G. Spraying a 200 ppm test suspension to the point of run-off on the test plants was the equivalent of a rate of 800 g/ha. The test suspension was sprayed to the point of run-off on wheat seedlings. The following day the seedlings were inoculated with a spore suspension of Septoria tritici (the causal agent of wheat leaf blotch) and incubated in a saturated atmosphere at 24° C. for 48 h, and then moved to a growth chamber at 20° C. for 19 days, after which time disease ratings were visually made. Results for Tests A-G are given in Table A. In the Table, a rating of 100 indicates 100% disease control and a rating of 0 indicates no disease control (relative to the controls). A dash (-) indicates no test results. All results are for 200 ppm except where followed by an “*”, which indicates 40 ppm.

Alternaria solani = assay: Test G: tomato early blight, preventive spray on tomato seedlings; details: 200 ppm; tomato seedlings sprayed to run-off, inoculated next day, rated after 48 h + 5 days
Text: General protocol for preparing test suspensions for Tests A-G: the test compounds were first dissolved in acetone in an amount equal to 11% of the final volume and then suspended at the desired concentration (in ppm) in acetone and purified water (50/50 mix by volume) containing 250 ppm of the surfactant Trem® 014 (polyhydric alcohol esters). The resulting test suspensions were then used in Tests A-G. Spraying a 200 ppm test suspension to the point of run-off on the test plants was the equivalent of a rate of 800 g/ha. The test suspension was sprayed to the point of run-off on tomato seedlings. The following day the seedlings were inoculated with a spore suspension of Alternaria solani (the causal agent of tomato early blight) and incubated in a saturated atmosphere at 27° C. for 48 h, and then moved to a growth chamber at 24° C. for 5 days, after which time disease ratings were visually made. Results for Tests A-G are given in Table A. In the Table, a rating of 100 indicates 100% disease control and a rating of 0 indicates no disease control (relative to the controls). A dash (-) indicates no test results. All results are for 200 ppm except where followed by an “*”, which indicates 40 ppm.

[3] = test system: Puccinia recondita f. sp. tritici; assay: Test C: wheat leaf rust, spray the day after inoculation of wheat seedlings; details: 200 ppm; wheat seedlings inoculated, sprayed the following day, rated after 5 days;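 note: Curative spray on infected wheat seedlings with visual rating 5 days later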
Text: General protocol for preparing test suspensions for Tests A-G: the test compounds were first dissolved in acetone in an amount equal to 11% of the final volume and then suspended at the desired concentration (in ppm) in acetone and purified water (50/50 mix by volume) containing 250 ppm of the surfactant Trem® 014 (polyhydric alcohol esters). The resulting test suspensions were then used in Tests A-G. Spraying a 200 ppm test suspension to the point of run-off on the test plants was the equivalent of a rate of 800 g/ha. Wheat seedlings were inoculated with a spore suspension of Puccinia recondita f. sp. tritici (the causal agent of wheat leaf rust) and incubated in a saturated atmosphere at 20° C. for 24 h. The following day, the test suspension was sprayed to the point of run-off on the wheat seedlings and then moved to a growth chamber at 20° C. for 5 days, after which time disease ratings were visually made. Results for Tests A-G are given in Table A. In the Table, a rating of 100 indicates 100% disease control and a rating of 0 indicates no disease control (relative to the controls). A dash (-) indicates no test results. All results are for 200 ppm except where followed by an “*”, which indicates 40 ppm.

Row | Compound | Percentage Disease Control Test B [1] | Percentage Disease Control Test F (Botrytis cinerea) | Percentage Disease Control Test A [2] | Percentage Disease Control Test D (Septoria nodorum) | Percentage Disease Control Test E (Septoria tritici) | Percentage Disease Control Test G (Alternaria solani) | Percentage Disease Control Test C [3]
1 | COC(=O)NCc1cc(-n2ccc(-c3ccc4c(c3)N(C)CCO4)n2)ccc1F [Compound 21] | 100% | 99% | 13% | 100% | 96% | 99% | 98%
2 | COC(=O)NCc1cc(-n2ccc(-c3ccc4c(c3)C(F)CCO4)n2)ccc1F (stereo not shown) [Compound 22] | 100% | 33% | 100% | 100% | 94% | 8% | 100%
3 | COC(=O)NCc1cc(-n2ccc(-c3ccc4c(c3)OCCO4)n2)ccc1C [Compound 26] | 100% | 33% | 100% | 100% | 99% | 9% | 100%
4 | COC(=O)NCc1cc(-c2ccn(-c3ccc4c(c3)C=C(C#N)CO4)n2)ccc1Cl [Compound 27] | 99% | 66% | 0% | 100% | 0% | 86% | 0%
